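In this assay, cells in 96-well plates receive the compound at five concentrations for 48 hours. Endpoints are linearly interpolated between the surrounding concentrations. TGI: concentration producing complete growth inhibition.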
Columns and labels:
Assay in all cases: NCI anticancer screen, dose series, 48 h
786-0 renal = test system: 786-0 renal
A498 renal = test system: A498 renal
A549 NSCLC = test system: A549 NSCLC
ACHN renal = test system: ACHN renal
CAKI-1 renal = test system: CAKI-1 renal
CCRF-CEM leukemia = test system: CCRF-CEM leukemia
COLO 205 colon = test system: COLO 205 colon
DLD-1 colon = test system: DLD-1 colon
DMS 114 small cell lung = test system: DMS 114 small cell lung
DMS 273 small cell lung = test system: DMS 273 small cell lung
EKVX NSCLC = test system: EKVX NSCLC
HCC-2998 colon = test system: HCC-2998 colon
HCT-116 colon = test system: HCT-116 colon
HCT-15 colon = test system: HCT-15 colon
HL-60(TB) leukemia = test system: HL-60(TB) leukemia
HOP-18 NSCLC = test system: HOP-18 NSCLC
HOP-62 NSCLC = test system: HOP-62 NSCLC
HOP-92 NSCLC = test system: HOP-92 NSCLC
HT29 colon = test system: HT29 colon
IGROV1 ovarian = test system: IGROV1 ovarian
K-562 leukemia = test system: K-562 leukemia
KM12 colon = test system: KM12 colon
KM20L2 colon = test system: KM20L2 colon
LXFL 529 NSCLC = test system: LXFL 529 NSCLC
M14 melanoma = test system: M14 melanoma
M19-MEL melanoma = test system: M19-MEL melanoma
MALME-3M melanoma = test system: MALME-3M melanoma
MOLT-4 leukemia = test system: MOLT-4 leukemia
NCI-H226 lung = test system: NCI-H226 lung
NCI-H23 lung = test system: NCI-H23 lung
NCI-H460 lung = test system: NCI-H460 lung
NCI-H522 lung = test system: NCI-H522 lung
OVCAR-3 ovarian = test system: OVCAR-3 ovarian
OVCAR-4 ovarian = test system: OVCAR-4 ovarian
OVCAR-5 ovarian = test system: OVCAR-5 ovarian
OVCAR-8 ovarian = test system: OVCAR-8 ovarian
RPMI-8226 leukemia = test system: RPMI-8226 leukemia
RXF 393 renal = test system: RXF 393 renal
SF-268 CNS = test system: SF-268 CNS
SF-295 CNS = test system: SF-295 CNS
SF-539 CNS = test system: SF-539 CNS
SK-MEL-2 melanoma = test system: SK-MEL-2 melanoma
SK-MEL-28 melanoma = test system: SK-MEL-28 melanoma
SK-MEL-5 melanoma = test system: SK-MEL-5 melanoma
SK-OV-3 ovarian = test system: SK-OV-3 ovarian
SN12C renal = test system: SN12C renal
SNB-19 CNS = test system: SNB-19 CNS
SNB-75 CNS = test system: SNB-75 CNS
SNB-78 CNS = test system: SNB-78 CNS
SR leukemia = test system: SR leukemia
SW-620 colon = test system: SW-620 colon
U251 CNS = test system: U251 CNS
UACC-257 melanoma = test system: UACC-257 melanoma
UACC-62 melanoma = test system: UACC-62 melanoma
UO-31 renal = test system: UO-31 renal
LOX IMVI melanoma = test system: LOX IMVI melanoma
TK-10 renal = test system: TK-10 renal
BT-549 breast = test system: BT-549 breast
DU-145 prostate = test system: DU-145 prostate
HS 578T breast = test system: HS 578T breast
MCF7 breast = test system: MCF7 breast
MDA-MB-231 breast = test system: MDA-MB-231 breast
MDA-MB-435 = test system: MDA-MB-435
MDA-N = test system: MDA-N
NCI/ADR-RES ovarian = test system: NCI/ADR-RES ovarian
PC-3 prostate = test system: PC-3 prostate
T-47D breast = test system: T-47D breast

Cc1ccccc1-n1c(=O)sc2c(=O)n(-c3ccccc3)c(=S)[nH]c21
TGI (786-0 renal): > 100 µM | TGI (A498 renal): > 100 µM | TGI (A549 NSCLC): > 100 µM | TGI (ACHN renal): > 100 µM | TGI (CAKI-1 renal): > 100 µM | TGI (CCRF-CEM leukemia): > 100 µM | TGI (COLO 205 colon): > 100 µM | TGI (DLD-1 colon): > 100 µM | TGI (DMS 114 small cell lung): > 100 µM | TGI (DMS 273 small cell lung): > 100 µM | TGI (EKVX NSCLC): > 100 µM | TGI (HCC-2998 colon): > 100 µM | TGI (HCT-116 colon): > 100 µM | TGI (HCT-15 colon): > 100 µM | TGI (HL-60(TB) leukemia): > 100 µM | TGI (HOP-18 NSCLC): > 100 µM | TGI (HOP-62 NSCLC): > 100 µM | TGI (HOP-92 NSCLC): > 100 µM | TGI (HT29 colon): > 100 µM | TGI (IGROV1 ovarian): > 100 µM | TGI (K-562 leukemia): > 100 µM | TGI (KM12 colon): > 100 µM | TGI (KM20L2 colon): > 100 µM | TGI (LXFL 529 NSCLC): > 100 µM | TGI (M14 melanoma): > 100 µM | TGI (M19-MEL melanoma): > 100 µM | TGI (MALME-3M melanoma): > 100 µM | TGI (MOLT-4 leukemia): > 100 µM | TGI (NCI-H226 lung): > 100 µM | TGI (NCI-H23 lung): > 100 µM | TGI (NCI-H460 lung): > 100 µM | TGI (NCI-H522 lung): > 100 µM | TGI (OVCAR-3 ovarian): > 100 µM | TGI (OVCAR-4 ovarian): > 100 µM | TGI (OVCAR-5 ovarian): > 100 µM | TGI (OVCAR-8 ovarian): > 100 µM | TGI (RPMI-8226 leukemia): > 100 µM | TGI (RXF 393 renal): > 100 µM | TGI (SF-268 CNS): > 100 µM | TGI (SF-295 CNS): > 100 µM | TGI (SF-539 CNS): > 100 µM | TGI (SK-MEL-2 melanoma): > 100 µM | TGI (SK-MEL-28 melanoma): > 100 µM | TGI (SK-MEL-5 melanoma): > 100 µM | TGI (SK-OV-3 ovarian): > 100 µM | TGI (SN12C renal): > 100 µM | TGI (SNB-19 CNS): > 100 µM | TGI (SNB-75 CNS): > 100 µM | TGI (SNB-78 CNS): > 100 µM | TGI (SR leukemia): > 100 µM | TGI (SW-620 colon): > 100 µM | TGI (U251 CNS): > 100 µM | TGI (UACC-257 melanoma): > 100 µM | TGI (UACC-62 melanoma): > 100 µM | TGI (UO-31 renal): > 100 µM

O=C1/C(=C/c2ccccc2)CN(C(=O)C(F)(F)F)C/C1=C\c1ccccc1
TGI (786-0 renal): 3.28 µM | TGI (A498 renal): 4.41 µM | TGI (A549 NSCLC): 12.1 µM | TGI (ACHN renal): 4.99 µM | TGI (CCRF-CEM leukemia): 8.03 µM | TGI (COLO 205 colon): 5.11 µM | TGI (DLD-1 colon): 4.27 µM | TGI (DMS 114 small cell lung): 3.33 µM | TGI (DMS 273 small cell lung): 2.95 µM | TGI (HCT-116 colon): 1.08 µM | TGI (HCT-15 colon): 5.33 µM | TGI (HL-60(TB) leukemia): 2.85 µM | TGI (HOP-18 NSCLC): 18.4 µM | TGI (HOP-62 NSCLC): 29.6 µM | TGI (HT29 colon): 3.01 µM | TGI (IGROV1 ovarian): 5.55 µM | TGI (K-562 leukemia): > 100 µM | TGI (KM12 colon): 3.98 µM | TGI (KM20L2 colon): 4.34 µM | TGI (LOX IMVI melanoma): 2.5 µM | TGI (LXFL 529 NSCLC): 3.26 µM | TGI (M14 melanoma): 3.29 µM | TGI (M19-MEL melanoma): 3.1 µM | TGI (MALME-3M melanoma): 15.9 µM | TGI (MOLT-4 leukemia): 79.6 µM | TGI (NCI-H23 lung): 4.52 µM | TGI (NCI-H460 lung): 2.97 µM | TGI (NCI-H522 lung): 5.77 µM | TGI (OVCAR-3 ovarian): 10.7 µM | TGI (OVCAR-4 ovarian): 4.72 µM | TGI (OVCAR-5 ovarian): 8.37 µM | TGI (OVCAR-8 ovarian): 3.37 µM | TGI (RPMI-8226 leukemia): 0.932 µM | TGI (RXF 393 renal): 3.63 µM | TGI (SF-295 CNS): 3.13 µM | TGI (SF-539 CNS): 4.06 µM | TGI (SK-MEL-2 melanoma): 23.1 µM | TGI (SK-MEL-28 melanoma): 3.45 µM | TGI (SK-MEL-5 melanoma): 3.26 µM | TGI (SN12C renal): 3.12 µM | TGI (SNB-19 CNS): 14.8 µM | TGI (SNB-75 CNS): 19 µM | TGI (SNB-78 CNS): 11.4 µM | TGI (SR leukemia): 5.48 µM | TGI (SW-620 colon): 1.83 µM | TGI (TK-10 renal): 13.4 µM | TGI (U251 CNS): 2.95 µM | TGI (UACC-257 melanoma): 3.32 µM | TGI (UACC-62 melanoma): 3.76 µM | TGI (UO-31 renal): 4.77 µM

CC1CSC(=S)N1C(=O)N1C(=S)SCC1C (stereo unspecified)
TGI (786-0 renal): 53.6 µM | TGI (A498 renal): 60.7 µM | TGI (A549 NSCLC): 91.8 µM | TGI (ACHN renal): 36.1 µM | TGI (BT-549 breast): 63.9 µM | TGI (CAKI-1 renal): 61.7 µM | TGI (CCRF-CEM leukemia): 48.5 µM | TGI (COLO 205 colon): 37.2 µM | TGI (DLD-1 colon): 44.4 µM | TGI (DMS 114 small cell lung): > 100 µM | TGI (DMS 273 small cell lung): 49.5 µM | TGI (DU-145 prostate): 45.2 µM | TGI (EKVX NSCLC): 63.4 µM | TGI (HCC-2998 colon): > 80.5 µM | TGI (HCT-116 colon): 42.9 µM | TGI (HCT-15 colon): 34.8 µM | TGI (HL-60(TB) leukemia): 88.3 µM | TGI (HOP-18 NSCLC): > 100 µM | TGI (HOP-62 NSCLC): > 82.8 µM | TGI (HOP-92 NSCLC): 73 µM | TGI (HS 578T breast): > 82.9 µM | TGI (HT29 colon): 73 µM | TGI (IGROV1 ovarian): 53.3 µM | TGI (K-562 leukemia): 60.9 µM | TGI (KM12 colon): 84.9 µM | TGI (KM20L2 colon): > 100 µM | TGI (LOX IMVI melanoma): 36.4 µM | TGI (LXFL 529 NSCLC): > 100 µM | TGI (M14 melanoma): 53.9 µM | TGI (M19-MEL melanoma): 81.7 µM | TGI (MALME-3M melanoma): 45.2 µM | TGI (MCF7 breast): 60.5 µM | TGI (MDA-MB-231 breast): 64.8 µM | TGI (MDA-MB-435): 46.6 µM | TGI (MDA-N): 50.7 µM | TGI (MOLT-4 leukemia): 81.9 µM | TGI (NCI-H226 lung): 71.7 µM | TGI (NCI-H23 lung): 43.1 µM | TGI (NCI-H460 lung): 59 µM | TGI (NCI-H522 lung): 26.7 µM | TGI (NCI/ADR-RES ovarian): 41.7 µM | TGI (OVCAR-3 ovarian): 82.3 µM | TGI (OVCAR-5 ovarian): 64.7 µM | TGI (OVCAR-8 ovarian): 32.3 µM | TGI (PC-3 prostate): 67.2 µM | TGI (RPMI-8226 leukemia): 66.2 µM | TGI (RXF 393 renal): 38.6 µM | TGI (SF-268 CNS): 74.6 µM | TGI (SF-295 CNS): 98.1 µM | TGI (SF-539 CNS): 41.4 µM | TGI (SK-MEL-2 melanoma): 53.2 µM | TGI (SK-MEL-28 melanoma): 41.9 µM | TGI (SK-MEL-5 melanoma): 34.8 µM | TGI (SK-OV-3 ovarian): > 100 µM | TGI (SN12C renal): 54.4 µM | TGI (SNB-19 CNS): > 100 µM | TGI (SNB-75 CNS): 88.1 µM | TGI (SNB-78 CNS): > 100 µM | TGI (SR leukemia): 59.3 µM | TGI (SW-620 colon): 49.4 µM | TGI (T-47D breast): > 100 µM | TGI (TK-10 renal): 74.8 µM | TGI (U251 CNS): 53.5 µM | TGI (UACC-257 melanoma): 43.4 µM | TGI (UACC-62 melanoma): 27.4 µM | TGI (UO-31 renal): 58.7 µM

Source: PubChem BioAssay (NCI)
